From ChEMBL document CHEMBL4321876 (J Med Chem, 2020)

Key:
[1] = biological target: Histone acetyltransferase p300 (Homo sapiens, UniProt Q09472); test: Inhibition of p300 (unknown origin) using histone H3 (1 to 21 residues) as substrate preincubated for 15 mins followed by substrate and [3H]acetyl-CoA addition and measured after 60 mins by scintillation counting analysis
MV4-11 = test: Antiproliferative activity against human MV4-11 cells measured after 3 days by celltiter-glo luminescence assay; format: functional, cell-based; settings: MV4-11, 72 h
[2] = Intrinsic clearance in rat liver microsomes assessed per mg protein at 0.1 uM preincubated for 10 mins followed by NADPH addition and measured up to 60 mins by UPLC-MS/MS analysis; format: ADME, Microsome; settings: read-out: CLH
[3] = Intrinsic clearance in human liver microsomes assessed per mg protein at 0.1 uM preincubated for 10 mins followed by NADPH addition and measured up to 60 mins by UPLC-MS/MS analysis; format: ADME, Microsome; settings: read-out: CLH
[4] = Intrinsic clearance in mouse liver microsomes assessed per mg protein at 0.1 uM preincubated for 10 mins followed by NADPH addition and measured up to 60 mins by UPLC-MS/MS analysis; format: ADME, Microsome; settings: read-out: CLH
[5] = Tmax in Sprague-Dawley rat at 3 mg/kg, po by LC-MS/MS analysis; format: ADME, organism-based; settings: in vivo
[6] = Cmax in Sprague-Dawley rat at 3 mg/kg, po by LC-MS/MS analysis; format: ADME, organism-based; design: dose 3 mg/kg, route oral; settings: in vivo
[7] = Half life in Sprague-Dawley rat at 3 mg/kg, po by LC-MS/MS analysis; format: ADME, organism-based; settings: in vivo
[8] = AUClast in Sprague-Dawley rat at 3 mg/kg, po by LC-MS/MS analysis; format: ADME, organism-based; design: dose 3 mg/kg, time 0 - last, route oral; settings: in vivo
[9] = Volume of distribution at steady state in Sprague-Dawley rat at 1 mg/kg, iv by LC-MS/MS analysis; format: ADME, organism-based; settings: in vivo, read-out: Vdss
[10] = AUClast in Sprague-Dawley rat at 1 mg/kg, iv by LC-MS/MS analysis; format: ADME, organism-based; design: dose 1 mg/kg, route intravenous, time 0 - last; settings: in vivo
[11] = Clearance in Sprague-Dawley rat at 1 mg/kg, iv by LC-MS/MS analysis; format: ADME, organism-based; settings: in vivo
[12] = Oral bioavailability in Sprague-Dawley rat at 3 mg/kg by LC-MS/MS analysis; format: ADME, organism-based; settings: in vivo
[13] = Protein binding in rat plasma; format: ADME, cell-free; settings: read-out: PPB (converted)
[14] = Half life in Sprague-Dawley rat at 1 mg/kg, iv by LC-MS/MS analysis; format: ADME, organism-based; settings: in vivo

Histone acetyltransferase p300, sequence (Q09472 whole entry, the tested form may be a part): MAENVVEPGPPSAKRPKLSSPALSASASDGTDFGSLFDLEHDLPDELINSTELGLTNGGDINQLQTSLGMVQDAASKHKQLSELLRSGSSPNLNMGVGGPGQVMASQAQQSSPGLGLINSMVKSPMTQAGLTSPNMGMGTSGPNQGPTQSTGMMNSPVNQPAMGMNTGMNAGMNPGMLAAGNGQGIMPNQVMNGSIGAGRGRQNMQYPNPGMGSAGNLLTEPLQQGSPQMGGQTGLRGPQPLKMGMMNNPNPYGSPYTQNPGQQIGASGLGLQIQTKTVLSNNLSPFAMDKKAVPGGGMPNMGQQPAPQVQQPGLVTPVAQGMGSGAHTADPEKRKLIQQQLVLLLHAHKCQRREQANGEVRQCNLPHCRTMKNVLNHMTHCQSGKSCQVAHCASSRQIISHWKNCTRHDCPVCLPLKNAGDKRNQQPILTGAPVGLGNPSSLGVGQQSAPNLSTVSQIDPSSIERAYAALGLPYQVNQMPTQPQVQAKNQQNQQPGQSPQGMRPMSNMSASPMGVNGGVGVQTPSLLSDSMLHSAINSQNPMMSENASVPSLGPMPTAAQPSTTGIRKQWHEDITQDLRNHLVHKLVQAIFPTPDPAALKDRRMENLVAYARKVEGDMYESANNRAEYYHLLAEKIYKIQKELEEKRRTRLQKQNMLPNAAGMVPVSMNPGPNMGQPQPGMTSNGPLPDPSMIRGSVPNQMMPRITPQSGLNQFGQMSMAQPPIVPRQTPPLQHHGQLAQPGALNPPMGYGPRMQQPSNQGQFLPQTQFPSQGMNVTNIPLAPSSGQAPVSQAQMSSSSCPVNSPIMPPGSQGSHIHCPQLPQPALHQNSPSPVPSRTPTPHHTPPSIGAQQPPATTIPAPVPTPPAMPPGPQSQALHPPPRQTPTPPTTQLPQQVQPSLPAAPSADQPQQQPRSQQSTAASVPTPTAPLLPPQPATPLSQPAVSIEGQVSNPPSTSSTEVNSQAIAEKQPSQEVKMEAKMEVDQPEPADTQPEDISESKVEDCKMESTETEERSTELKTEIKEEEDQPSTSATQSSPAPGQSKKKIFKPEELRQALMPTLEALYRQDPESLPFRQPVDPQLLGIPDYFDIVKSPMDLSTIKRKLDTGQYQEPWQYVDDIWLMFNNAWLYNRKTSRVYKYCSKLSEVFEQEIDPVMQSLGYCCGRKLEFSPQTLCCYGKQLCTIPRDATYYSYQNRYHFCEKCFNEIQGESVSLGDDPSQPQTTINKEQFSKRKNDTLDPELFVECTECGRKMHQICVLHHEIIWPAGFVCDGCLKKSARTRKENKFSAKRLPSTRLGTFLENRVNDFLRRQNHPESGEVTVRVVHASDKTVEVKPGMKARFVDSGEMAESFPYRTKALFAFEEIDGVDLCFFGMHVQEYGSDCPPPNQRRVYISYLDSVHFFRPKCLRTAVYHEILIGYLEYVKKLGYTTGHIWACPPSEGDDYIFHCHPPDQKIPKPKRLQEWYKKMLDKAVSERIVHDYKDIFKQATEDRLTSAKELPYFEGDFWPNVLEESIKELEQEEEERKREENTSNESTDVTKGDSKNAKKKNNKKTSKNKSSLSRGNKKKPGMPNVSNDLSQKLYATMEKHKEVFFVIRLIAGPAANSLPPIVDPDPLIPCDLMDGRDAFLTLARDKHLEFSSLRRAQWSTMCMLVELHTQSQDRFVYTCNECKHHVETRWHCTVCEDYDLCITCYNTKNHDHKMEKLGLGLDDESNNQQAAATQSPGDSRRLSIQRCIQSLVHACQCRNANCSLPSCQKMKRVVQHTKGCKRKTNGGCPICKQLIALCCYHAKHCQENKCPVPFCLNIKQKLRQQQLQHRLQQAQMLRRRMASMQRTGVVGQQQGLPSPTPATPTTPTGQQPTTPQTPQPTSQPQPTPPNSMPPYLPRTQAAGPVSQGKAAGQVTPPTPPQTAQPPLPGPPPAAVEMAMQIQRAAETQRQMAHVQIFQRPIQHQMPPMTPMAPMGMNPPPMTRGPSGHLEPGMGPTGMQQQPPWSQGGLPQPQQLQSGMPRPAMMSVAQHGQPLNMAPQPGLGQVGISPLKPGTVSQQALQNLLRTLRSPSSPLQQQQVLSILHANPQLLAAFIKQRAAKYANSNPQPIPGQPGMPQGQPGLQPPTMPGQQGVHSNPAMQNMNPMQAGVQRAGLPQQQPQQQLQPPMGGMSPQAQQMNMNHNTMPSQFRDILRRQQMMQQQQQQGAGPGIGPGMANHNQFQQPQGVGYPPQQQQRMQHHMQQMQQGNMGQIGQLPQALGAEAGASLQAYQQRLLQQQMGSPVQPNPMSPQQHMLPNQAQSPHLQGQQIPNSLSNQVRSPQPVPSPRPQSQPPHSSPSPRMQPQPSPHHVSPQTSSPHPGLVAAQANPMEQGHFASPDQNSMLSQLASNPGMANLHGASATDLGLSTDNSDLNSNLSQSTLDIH

| Compound | IC50 [1] [nM] | IC50 (MV4-11) [nM] | microsomal CLint at 0.1 µM [2] [µL/min/mg] | microsomal CLint at 0.1 µM [3] [µL/min/mg] | microsomal CLint at 0.1 µM [4] [µL/min/mg] | Tmax [5] [min] | Cmax [6] [nM] | half-life [7] [min] | AUC(0-t) [8] [µM·h] | Vd [9] [L/kg] | AUC(0-t) [10] [µM·h] | clearance [11] [mL/min/kg] | bioavailability [12] [%] | fraction unbound [13] | half-life [14] [min] |
| --- | --- | --- | --- | --- | --- | --- | --- | --- | --- | --- | --- | --- | --- | --- | --- |
| CNC(=O)Nc1ccc2c(c1)CC[C@@]21OC(=O)N(CC(=O)N2Cc3ccccc3C[C@H]2C)C1=O | > 1000 |  |  |  |  |  |  |  |  |  |  |  |  |  |  |
| Cn1cc(-c2cc3c(cn2)[C@]2(CC3)NC(=O)N(CC(=O)N3Cc4cc(F)ccc4OC[C@H]3C(F)(F)F)C2=O)cn1 | 30 | 825 |  |  |  |  |  |  |  |  |  |  |  |  |  |
| CNC(=O)Nc1ccc2c(c1)CC[C@@]21OC(=O)N(CC(=O)N2Cc3ccc(F)cc3CC[C@H]2C)C1=O |  | 20.4 | 265 | 255 | 219 |  |  |  |  |  |  |  |  |  |  |
| CNC(=O)Nc1ccc2c(c1)CC[C@@]21OC(=O)N(CC(=O)N2Cc3ccccc3CC[C@@H]2C)C1=O | > 1000 | > 5000 |  |  |  |  |  |  |  |  |  |  |  |  |  |
| CNC(=O)Nc1ccc2c(c1)CC[C@]21NC(=O)N(CC(=O)N2Cc3cc(F)ccc3OC[C@H]2C2CC2)C1=O | 4.2 | 4.8 | 9.2 | 9.4 | 9.6 | 24.6 | 7 | 59.4 | 0.008 |  |  |  |  |  |  |
| CNC(=O)Nc1ccc2c(c1)CC[C@@]21OC(=O)N(CC(=O)N2Cc3ccc(F)cc3CC[C@H]2C2CC2)C1=O |  | 4 | 258 | 112 | 150 |  |  |  |  |  |  |  |  |  |  |
| CNC(=O)Nc1ccc2c(c1)CC[C@@]21OC(=O)N(CC(=O)N2Cc3ccccc3CC[C@@H]2C(F)(F)F)C1=O | > 1000 | > 5000 |  |  |  |  |  |  |  |  |  |  |  |  |  |
| Cn1cc(-c2ccc3c(c2)CC[C@]32NC(=O)N(CC(=O)N3Cc4cc(F)ccc4OC[C@H]3C3CC3)C2=O)cn1 | 1.3 | 3.5 | 40.8 | 33.7 | 155 | 30 | 620 | 59.4 | 0.97 | 1 | 1.53 | 20.7 | 21 | 0.021 | 41.4 |
| CNC(=O)Nc1ccc2c(c1)CC[C@@]21OC(=O)N(CC(=O)N2Cc3ccccc3CC[C@H]2C(C)C)C1=O | 4.3 | 10.7 | 411 | 209 | 360 |  |  |  |  |  |  |  |  |  |  |
| Cn1cc(-c2ccc3c(c2)CC[C@@]32OC(=O)N(CC(=O)N3Cc4cc(F)ccc4OC[C@H]3C(F)(F)F)C2=O)cn1 | 2.4 | 13.5 | 57.8 | 35 | 60.9 | 25.2 | 390 | 87 | 1.04 | 4 | 0.97 | 29.8 | 35 | 0.006 | 126 |
| CCC[C@@H]1CCc2ccccc2CN1C(=O)CN1C(=O)O[C@@]2(CCc3cc(NC(=O)NC)ccc32)C1=O | 4 | 12 |  |  |  |  |  |  |  |  |  |  |  |  |  |
| CNC(=O)Nc1ccc2c(c1)CC[C@@]21NC(=O)N(CC(=O)N2Cc3cc(F)ccc3OC[C@H]2C(F)(F)F)C1=O | > 100 | > 1000 |  |  |  |  |  |  |  |  |  |  |  |  |  |
| CNC(=O)Nc1ccc2c(c1)CC[C@@]21OC(=O)N(CC(=O)N2CCCc3ccccc3C2)C1=O | > 500 | > 1000 |  |  |  |  |  |  |  |  |  |  |  |  |  |
| CNC(=O)Nc1ccc2c(c1)CC[C@@]21NC(=O)N(CC(=O)N2Cc3cc(F)ccc3OC[C@H]2C2CC2)C1=O | 73 | > 500 |  |  |  |  |  |  |  |  |  |  |  |  |  |
| CNC(=O)Nc1ccc2c(c1)CC[C@]21NC(=O)N(CC(=O)N2Cc3cc(F)ccc3OC[C@H]2C(F)(F)F)C1=O | 7.5 | 15.8 | 3.1 | 10.2 | 16.4 | 15 | 20 | 267 | 0.054 |  |  |  |  |  |  |
| Cn1cc(-c2cnc3c(c2)CC[C@]32NC(=O)N(CC(=O)N3Cc4cc(F)ccc4OC[C@H]3C(F)(F)F)C2=O)cn1 | 10 | 118 |  |  |  |  |  |  |  |  |  |  |  |  |  |
| CNC(=O)Nc1ccc2c(c1)CC[C@@]21OC(=O)N(CC(=O)N2Cc3ccccc3CC[C@H]2C2CC2)C1=O | 3.7 | 8.8 | 480 | 179 | 197 | 15 | 140 | 100 | 0.21 | 0.88 | 1.18 | 27.9 | 6 |  | 37.2 |
| CNC(=O)Nc1ccc2c(c1)CC[C@]21OC(=O)N(CC(=O)N2Cc3ccccc3CC[C@H]2C)C1=O | 46 | 156 |  |  |  |  |  |  |  |  |  |  |  |  |  |
| CNC(=O)Nc1ccc2c(c1)CC[C@@]21OC(=O)N(CC(=O)N2Cc3ccccc3OC[C@H]2C)C1=O |  | 72.8 | 82.5 | 20.5 | 37.3 |  |  |  |  |  |  |  |  |  |  |
| Cn1cc(-c2ccc3c(n2)CC[C@]32NC(=O)N(CC(=O)N3Cc4cc(F)ccc4OC[C@H]3C(F)(F)F)C2=O)cn1 | 14 | 206 |  |  |  |  |  |  |  |  |  |  |  |  |  |
| CNC(=O)Nc1ccc2c(c1)CC[C@@]21OC(=O)N(CC(=O)N2Cc3ccc(F)cc3CC[C@H]2C(F)(F)F)C1=O |  | 2.9 | 94.4 | 161 | 106 |  |  |  |  |  |  |  |  |  |  |
| CNC(=O)Nc1ccc2c(c1)CC[C@@]21OC(=O)N(CC(=O)N2Cc3cc(F)ccc3OC[C@H]2C(F)(F)F)C1=O |  | 24.9 | 47.8 | 31.1 | 52.3 | 60 | 80 | 85.8 | 0.27 |  |  |  |  |  |  |
| Cn1cc(-c2ccc3c(c2)CC[C@@]32OC(=O)N(CC(=O)N3Cc4cc(F)ccc4OC[C@H]3C3CC3)C2=O)cn1 | 4 | 3.7 | 121 | 81.5 | 113 | 30 | 57 | 72.6 | 0.09 |  |  |  |  | 0.007 |  |
| CNC(=O)Nc1ccc2c(c1)CC[C@@]21OC(=O)N(CC(=O)N2Cc3ccccc3CC[C@H]2C(F)(F)F)C1=O | 2.6 | 8.2 | 134 | 147 | 166 | 30 | 160 | 109 | 0.36 | 1.34 | 0.89 | 35.1 | 13.5 |  | 40.2 |
| CNC(=O)Nc1ccc2c(c1)CC[C@@]21OC(=O)N(CC(=O)N2Cc3ccccc3CC[C@H]2C)C1=O | 10 | 64.3 |  |  |  |  |  |  |  |  |  |  |  |  |  |
| CNC(=O)Nc1ccc2c(c1)CC[C@]21OC(=O)N(CC(=O)N2Cc3ccccc3CC[C@H]2C(F)(F)F)C1=O | 10 | 77 |  |  |  |  |  |  |  |  |  |  |  |  |  |
